# US8895538B2, “Combination and composition that contains an antimicrobial, a glucocorticoid and an antimycotic” (Laboratories Senosiain S.A. de C.V., priority 2009, dated 2014)
# Key:
# [1] = cited from earlier work
# mice = details: administered orally; cited from earlier work
# rats = details: administered orally; cited from earlier work
# [2] = in vivo; cited from earlier work
# [3] = Laboratory assays of sensitivity, solubility and stability of the active agents at different pH conditions; format: physicochemical
# Description: Laboratory assays were carried out for verifying the sensitivity, solubility and stability of the active agents at different pH conditions. Thus, their stability was tested at different pH conditions. Due to the sensitivity of the active agents, the addition order of these components, as well as the excipient and vehicle selection are of great importance for avoiding degradation or incompatibilities of said active agents.
compound,measurement,setting,value
C[C@H]1C[C@H]2[C@@H]3CCC4=CC(=O)C=C[C@]4(C)[C@@]3(F)[C@@H](O)C[C@]2(C)[C@@]1(O)C(=O)CO [Betametasone],solubility in water,[1]; water,almost insoluble
Clc1ccccc1C(c1ccccc1)(c1ccccc1)n1ccnc1 [Clotrimazole],LD50,mice,923 mg/kg
same,LD50,rats,708 mg/kg
same,absorbed in topical applications,[2],3-10 % of the dose
same,hydrolysis in acid solution at high temperature,"[1]; acid solution, high temperature",rapidly hydrolised
CC(=O)O[C@H]1C[C@@]2(C)[C@@H](C[C@@H](O)[C@H]3[C@@]4(C)CC[C@@H](O)[C@@H](C)[C@@H]4CC[C@@]32C)/C1=C(\CCC=C(C)C)C(=O)O [Fusidic acid],stability in the presence of acid substances,[3],greatly reduced
